Assay results from ChEMBL document CHEMBL1138821, “Amino porphyrins as photoinhibitors of Gram-positive and -negative bacteria” (2004).
≈ marks a conversion by molar mass, not a printed value.

Key:
Assay type in all cases: functional
Staphylococcus aureus [1] = assay: Minimal inhibitory concentration against Staphylococcus aureus was evaluated
Staphylococcus aureus [2] = assay: Minimal bacterial concentration against Staphylococcus aureus was evaluated
Escherichia coli [3] = assay: Minimal bacterial concentration against Escherichia coli was evaluated; Range = 2-2.5 ug/mL
Staphylococcus aureus [4] = assay: Minimal bacterial concentration against Staphylococcus aureus was evaluated; Range = 2-2.5 ug/mL
Staphylococcus aureus [5] = assay: Minimal inhibitory concentration against Staphylococcus aureus was evaluated; Range = 1.5-2 ug/mL
Staphylococcus aureus [6] = assay: Minimal inhibitory concentration against Staphylococcus aureus was evaluated; Range = 1.5-2.0 ug/mL
Staphylococcus aureus [7] = assay: Minimal inhibitory concentration against Staphylococcus aureus was evaluated; Range = 1-1.5 ug/mL
Staphylococcus aureus [8] = assay: Minimal inhibitory concentration against Staphylococcus aureus was evaluated; Range = 0.5-1.0 ug/mL
Staphylococcus aureus [9] = assay: Minimal bacterial concentration against Staphylococcus aureus was evaluated; Range = 1-1.5 ug/mL
Staphylococcus aureus [10] = assay: Minimal inhibitory concentration against Staphylococcus aureus was evaluated; Range = 0-0.5 ug/mL
Staphylococcus aureus [11] = assay: Minimal bacterial concentration against Staphylococcus aureus was evaluated; Range = 1.0-1.5ug/mL
Escherichia coli [12] = assay: Minimal bacterial concentration against Escherichia coli was evaluated; Range = 1.5-2.0 ug/mL

Cc1ccc(C2c3ccc([nH]3)C(c3ccc(C)cc3)c3ccc([nH]3)C(c3ccccc3N)c3ccc([nH]3)C(c3ccc(C)cc3)c3ccc2[nH]3)cc1 (configuration not stated)
MIC (Staphylococcus aureus [1]): > 2.5 µg/mL | MBC (Staphylococcus aureus [2]): > 3 µg/mL

C=CC1=C(C)/C2=C/c3[nH]c(c(C)c3C=C)/C=c3\[nH]/c(c(CCC(=O)NCCCCN(CCCN)CCCCN)c3C)=C\C3=NC(CC1=N2)C(C)=C3CCC(=O)NCCCCN(CCCN)CCCCN (configuration not stated)
MBC (Escherichia coli [3]): 2.5 µg/mL (≈ 2.6 µM) | MBC (Staphylococcus aureus [4]): 2.5 µg/mL (≈ 2.6 µM) | MIC (Staphylococcus aureus [5]): 2 µg/mL (≈ 2.08 µM)

Nc1ccc(C2c3ccc([nH]3)C(c3ccc(N)cc3)c3ccc([nH]3)C(c3ccccc3O[C@@H]3O[C@@H](CO)[C@@H](O)[C@H](O)[C@@H]3O)c3ccc([nH]3)C(c3ccc(N)cc3)c3ccc2[nH]3)cc1 (some centres not stated)
MIC (Staphylococcus aureus [6]): 2 µg/mL (≈ 2.37 µM) | MBC (Staphylococcus aureus [2]): > 1.5 µg/mL

Nc1ccc(C2c3ccc([nH]3)C(c3ccc(N)cc3)c3ccc([nH]3)C(c3ccc(O[C@@H]4O[C@@H](CO)[C@@H](O)[C@H](O)[C@@H]4O)cc3)c3ccc([nH]3)C(c3ccc(N)cc3)c3ccc2[nH]3)cc1 (some centres not stated)
MBC (Staphylococcus aureus [2]): > 1.5 µg/mL | MIC (Staphylococcus aureus [7]): 1.5 µg/mL (≈ 1.78 µM)

CC(N)C(=O)Nc1ccccc1C1c2ccc([nH]2)C(c2ccc(O[C@@H]3O[C@@H](CO)[C@@H](O)[C@H](O)[C@@H]3O)cc2)c2ccc([nH]2)C(c2ccc(O[C@@H]3O[C@@H](CO)[C@@H](O)[C@H](O)[C@@H]3O)cc2)c2ccc([nH]2)C(c2ccc(O[C@@H]3O[C@@H](CO)[C@@H](O)[C@H](O)[C@@H]3O)cc2)c2ccc1[nH]2 (some centres not stated)
MIC (Staphylococcus aureus [6]): 2 µg/mL (≈ 1.61 µM) | MBC (Staphylococcus aureus [2]): > 1.5 µg/mL

CC(N)C(=O)Nc1ccc(C2c3ccc([nH]3)C(c3ccc(O[C@@H]4O[C@@H](CO)[C@@H](O)[C@H](O)[C@@H]4O)cc3)c3ccc([nH]3)C(c3ccc(O[C@@H]4O[C@@H](CO)[C@@H](O)[C@H](O)[C@@H]4O)cc3)c3ccc([nH]3)C(c3ccc(O[C@@H]4O[C@@H](CO)[C@@H](O)[C@H](O)[C@@H]4O)cc3)c3ccc2[nH]3)cc1 (some centres not stated)
MBC (Staphylococcus aureus [2]): > 1.5 µg/mL | MIC (Staphylococcus aureus [7]): 1.5 µg/mL (≈ 1.21 µM)

CC(N)C(=O)Nc1ccc(C2c3ccc([nH]3)C(c3ccc(O[C@@H]4O[C@@H](CO)[C@@H](O)[C@H](O)[C@@H]4O)cc3)c3ccc([nH]3)C(c3ccc(NC(=O)C(C)N)cc3)c3ccc([nH]3)C(c3ccc(O[C@@H]4O[C@@H](CO)[C@@H](O)[C@H](O)[C@@H]4O)cc3)c3ccc2[nH]3)cc1 (some centres not stated)
MIC (Staphylococcus aureus [8]): 1 µg/mL (≈ 0.87 µM) | MBC (Staphylococcus aureus [9]): 1.5 µg/mL (≈ 1.31 µM)

CC(N)C(=O)Nc1ccc(C2c3ccc([nH]3)C(c3ccc(NC(=O)C(C)N)cc3)c3ccc([nH]3)C(c3ccc(O[C@@H]4O[C@@H](CO)[C@@H](O)[C@H](O)[C@@H]4O)cc3)c3ccc([nH]3)C(c3ccc(O[C@@H]4O[C@@H](CO)[C@@H](O)[C@H](O)[C@@H]4O)cc3)c3ccc2[nH]3)cc1 (some centres not stated)
MIC (Staphylococcus aureus [8]): 1 µg/mL (≈ 0.87 µM) | MBC (Staphylococcus aureus [9]): 1.5 µg/mL (≈ 1.31 µM)

CC(N)C(=O)Nc1ccc(C2c3ccc([nH]3)C(c3ccc(NC(=O)C(C)N)cc3)c3ccc([nH]3)C(c3ccccc3O[C@@H]3O[C@@H](CO)[C@@H](O)[C@H](O)[C@@H]3O)c3ccc([nH]3)C(c3ccc(NC(=O)C(C)N)cc3)c3ccc2[nH]3)cc1 (some centres not stated)
MBC (Staphylococcus aureus [2]): > 1.5 µg/mL | MIC (Staphylococcus aureus [5]): 2 µg/mL (≈ 1.89 µM)

CC(N)C(=O)Nc1ccc(C2c3ccc([nH]3)C(c3ccc(NC(=O)C(C)N)cc3)c3ccc([nH]3)C(c3ccc(O[C@@H]4O[C@@H](CO)[C@@H](O)[C@H](O)[C@@H]4O)cc3)c3ccc([nH]3)C(c3ccc(NC(=O)C(C)N)cc3)c3ccc2[nH]3)cc1 (some centres not stated)
MBC (Staphylococcus aureus [2]): > 1.5 µg/mL | MIC (Staphylococcus aureus [7]): 1.5 µg/mL (≈ 1.42 µM)

Nc1ccccc1C1c2ccc([nH]2)C(c2ccc(O[C@@H]3O[C@@H](CO)[C@@H](O)[C@H](O)[C@@H]3O)cc2)c2ccc([nH]2)C(c2ccc(O[C@@H]3O[C@@H](CO)[C@@H](O)[C@H](O)[C@@H]3O)cc2)c2ccc([nH]2)C(c2ccc(O[C@@H]3O[C@@H](CO)[C@@H](O)[C@H](O)[C@@H]3O)cc2)c2ccc1[nH]2 (some centres not stated)
MIC (Staphylococcus aureus [8]): 1 µg/mL (≈ 0.855 µM) | MBC (Staphylococcus aureus [2]): > 1.5 µg/mL

Nc1ccc(C2c3ccc([nH]3)C(c3ccc(O[C@@H]4O[C@@H](CO)[C@@H](O)[C@H](O)[C@@H]4O)cc3)c3ccc([nH]3)C(c3ccc(O[C@@H]4O[C@@H](CO)[C@@H](O)[C@H](O)[C@@H]4O)cc3)c3ccc([nH]3)C(c3ccc(O[C@@H]4O[C@@H](CO)[C@@H](O)[C@H](O)[C@@H]4O)cc3)c3ccc2[nH]3)cc1 (some centres not stated)
MBC (Staphylococcus aureus [9]): 1.5 µg/mL (≈ 1.28 µM) | MIC (Staphylococcus aureus [7]): 1.5 µg/mL (≈ 1.28 µM)

Nc1ccc(C2c3ccc([nH]3)C(c3ccc(O[C@@H]4O[C@@H](CO)[C@@H](O)[C@H](O)[C@@H]4O)cc3)c3ccc([nH]3)C(c3ccc(N)cc3)c3ccc([nH]3)C(c3ccc(O[C@@H]4O[C@@H](CO)[C@@H](O)[C@H](O)[C@@H]4O)cc3)c3ccc2[nH]3)cc1 (some centres not stated)
MBC (Staphylococcus aureus [9]): 1.5 µg/mL (≈ 1.49 µM) | MIC (Staphylococcus aureus [10]): 0.5 µg/mL (≈ 0.496 µM)

Nc1ccc(C2c3ccc([nH]3)C(c3ccc(N)cc3)c3ccc([nH]3)C(c3ccc(O[C@@H]4O[C@@H](CO)[C@@H](O)[C@H](O)[C@@H]4O)cc3)c3ccc([nH]3)C(c3ccc(O[C@@H]4O[C@@H](CO)[C@@H](O)[C@H](O)[C@@H]4O)cc3)c3ccc2[nH]3)cc1 (some centres not stated)
MIC (Staphylococcus aureus [1]): > 3 µg/mL

N=C(N)NCCCC(NC(=O)CCCCOc1ccccc1C1c2ccc([nH]2)C(c2ccc(O[C@@H]3O[C@@H](CO)[C@@H](O)[C@H](O)[C@@H]3O)cc2)c2ccc([nH]2)C(c2ccc(O[C@@H]3O[C@@H](CO)[C@@H](O)[C@H](O)[C@@H]3O)cc2)c2ccc([nH]2)C(c2ccc(O[C@@H]3O[C@@H](CO)[C@@H](O)[C@H](O)[C@@H]3O)cc2)c2ccc1[nH]2)C(=O)NCC(=O)NC(CC(=O)O)C(=O)O (some centres not stated)
MIC (Staphylococcus aureus [8]): 1 µg/mL (≈ 0.625 µM) | MBC (Staphylococcus aureus [9]): 1.5 µg/mL (≈ 0.938 µM)

N=C(N)NCCCC(NC(=O)CCCOc1ccc(C2c3ccc([nH]3)C(c3ccc(O[C@@H]4O[C@@H](CO)[C@@H](O)[C@H](O)[C@@H]4O)cc3)c3ccc([nH]3)C(c3ccc(O[C@@H]4O[C@@H](CO)[C@@H](O)[C@H](O)[C@@H]4O)cc3)c3ccc([nH]3)C(c3ccc(O[C@@H]4O[C@@H](CO)[C@@H](O)[C@H](O)[C@@H]4O)cc3)c3ccc2[nH]3)cc1)C(=O)NCC(=O)NC(CC(=O)O)C(=O)O (some centres not stated)
MIC (Staphylococcus aureus [8]): 1 µg/mL (≈ 0.631 µM) | MBC (Staphylococcus aureus [9]): 1.5 µg/mL (≈ 0.946 µM)

Cc1ccc(C2c3ccc([nH]3)C(c3ccc(C)cc3)c3ccc([nH]3)C(c3ccc(OCCCC(=O)NC(CCCN=C(N)N)C(=O)NCC(=O)NC(CC(=O)O)C(=O)O)cc3)c3ccc([nH]3)C(c3ccc(C)cc3)c3ccc2[nH]3)cc1 (configuration not stated)
MIC (Staphylococcus aureus [1]): > 2.5 µg/mL | MBC (Staphylococcus aureus [2]): > 3 µg/mL

Cc1ccc(C2c3ccc([nH]3)C(c3ccc(C)cc3)c3ccc([nH]3)C(c3ccccc3OCCCC(=O)NC(CCCN=C(N)N)C(=O)NCC(=O)NC(CC(=O)O)C(=O)O)c3ccc([nH]3)C(c3ccc(C)cc3)c3ccc2[nH]3)cc1 (configuration not stated)
MIC (Staphylococcus aureus [1]): > 2.5 µg/mL | MBC (Staphylococcus aureus [2]): > 3 µg/mL

Cc1ccc(C2c3ccc([nH]3)C(c3ccc(C)cc3)c3ccc([nH]3)C(c3ccc(N)cc3)c3ccc([nH]3)C(c3ccc(C)cc3)c3ccc2[nH]3)cc1 (configuration not stated)
MIC (Staphylococcus aureus [1]): > 2.5 µg/mL | MBC (Staphylococcus aureus [2]): > 3 µg/mL

Cc1ccc(C2c3ccc([nH]3)C(c3ccc(C)cc3)c3ccc([nH]3)C(c3ccccc3NC(=O)C(N)CO)c3ccc([nH]3)C(c3ccc(C)cc3)c3ccc2[nH]3)cc1 (configuration not stated)
MIC (Staphylococcus aureus [1]): > 3 µg/mL

Cc1ccc(C2c3ccc([nH]3)C(c3ccc(C)cc3)c3ccc([nH]3)C(c3ccc(OCCCC(=O)N(CCCN)CCCCN)cc3)c3ccc([nH]3)C(c3ccc(C)cc3)c3ccc2[nH]3)cc1 (configuration not stated)
MIC (Staphylococcus aureus [8]): 1 µg/mL (≈ 1.12 µM) | MBC (Staphylococcus aureus [9]): 1.5 µg/mL (≈ 1.68 µM)

C=CC1=C(C)/C2=C/c3[nH]c(c(C)c3C=C)/C=c3\[nH]/c(c(CCC(=O)NCCCCN(CCCN)CCCCNCCCN)c3C)=C\C3=NC(CC1=N2)C(C)=C3CCC(=O)NCCCCN(CCCN)CCCCNCCCN (configuration not stated)
MIC (Staphylococcus aureus [8]): 1 µg/mL (≈ 0.93 µM) | MBC (Staphylococcus aureus [11]): 1.5 µg/mL (≈ 1.39 µM) | MBC (Escherichia coli [12]): 2 µg/mL (≈ 1.86 µM)

Cc1ccc(C2c3ccc([nH]3)C(c3ccc(C)cc3)c3ccc([nH]3)C(c3ccc(OCCCC(=O)N(CCCN)CCCCNCCCN)cc3)c3ccc([nH]3)C(c3ccc(C)cc3)c3ccc2[nH]3)cc1 (configuration not stated)
MBC (Staphylococcus aureus [2]): > 1.5 µg/mL | MIC (Staphylococcus aureus [7]): 1.5 µg/mL (≈ 1.58 µM)

Cc1ccc(C2c3ccc([nH]3)C(c3ccc(C)cc3)c3ccc([nH]3)C(c3ccc(NC(=O)C(N)CO)cc3)c3ccc([nH]3)C(c3ccc(C)cc3)c3ccc2[nH]3)cc1 (configuration not stated)
MIC (Staphylococcus aureus [1]): > 3 µg/mL
